The text below walks through data of BindingDB's records for doi:10.1021/jm00092a001 (Wyeth-Ayerst Research, 1992).

The target in experiment [1] is Polyunsaturated fatty acid 5-lipoxygenase (Mus musculus) (UniProt P48999). The experiment can be described thus: The compound was tested for inhibitory activity against 5-lipoxygenase in mouse.
Experiment [2] can be described thus: The compound was tested for inhibitory activity against 5-Lipoxygenase in guinea pig polymorphonuclear leukocytes.

Each structure is given as a SMILES string.

Chain of Polyunsaturated fatty acid 5-lipoxygenase (Mus musculus) (P48999 whole entry, looked up): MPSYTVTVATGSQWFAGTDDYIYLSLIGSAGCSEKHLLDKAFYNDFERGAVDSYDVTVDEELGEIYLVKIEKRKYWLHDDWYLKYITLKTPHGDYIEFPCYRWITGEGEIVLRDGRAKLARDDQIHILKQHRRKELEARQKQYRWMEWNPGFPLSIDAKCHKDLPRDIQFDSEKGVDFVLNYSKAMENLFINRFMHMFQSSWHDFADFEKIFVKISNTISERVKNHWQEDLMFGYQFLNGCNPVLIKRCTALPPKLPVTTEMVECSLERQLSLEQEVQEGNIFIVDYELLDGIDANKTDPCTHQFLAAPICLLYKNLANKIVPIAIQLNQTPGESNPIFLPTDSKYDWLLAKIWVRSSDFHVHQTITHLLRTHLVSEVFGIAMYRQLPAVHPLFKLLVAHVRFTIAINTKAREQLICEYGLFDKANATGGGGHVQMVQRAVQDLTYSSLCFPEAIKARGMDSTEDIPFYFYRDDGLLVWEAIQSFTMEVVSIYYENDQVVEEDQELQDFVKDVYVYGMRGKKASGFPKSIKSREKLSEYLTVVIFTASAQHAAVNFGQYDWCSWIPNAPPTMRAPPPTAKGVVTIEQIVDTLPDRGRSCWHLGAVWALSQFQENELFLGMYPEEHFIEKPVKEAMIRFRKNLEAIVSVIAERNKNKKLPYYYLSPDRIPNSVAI

For `Cc1nc(NCCCCCCc2ccccc2)nc(C)c1O`, it took 300 nM to reach half-maximal inhibition in experiment [1] (IC50).

`Cc1ccc(C)n1-c1ccc(/C=C/CC(=O)N(C)O)cc1`: in experiment [2], the IC50 (usually the concentration at which inhibition is half-maximal) came out at 600 nM.
